Experimental data from PubChem BioAssay AID248 (DTP/NCI, 2004).
“And” between values parts separate entries of the source, which are not always exact repeats. Equal values may be shown once. Inconclusive results and toxic doses are left out. Cut-off read from the data, not from the text of the source: active = T/C of 150% or more; inactive = T/C below 125%.

System: L1210 leukemia ip in BDF1 mice, survival T/C
Assay: NCI In Vivo Anticancer Drug Screen. Data for tumor model L1210 Leukemia (intraperitoneal) in B6D2F1 (BDF1) mice
Settings: endpoint: mean survival time, higher = longer survival
Summary of the method: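 In this screen, tumor-bearing mice given compound are compared to those given vehicle, and their survival values are reported as a treated-to-control quotient.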

[1] = dose: 100.0 mg/kg/injection, schedule: Q01DX009 (ip), vehicle: saline with Tween-80
[2] = dose: 12.5 mg/kg/injection, schedule: Q01DX009 (ip), vehicle: saline
[3] = dose: 25.0 mg/kg/injection, schedule: Q01DX009 (ip), vehicle: saline
[4] = dose: 100.0 mg/kg/injection, schedule: Q01DX001 (ip), vehicle: saline
[5] = dose: 200.0 mg/kg/injection, schedule: Q01DX001 (ip), vehicle: saline
[6] = dose: 400.0 mg/kg/injection, schedule: Q01DX001 (ip), vehicle: saline

Measured: T/C

COc1ccc(NC(=O)CCN2CC2)cc1
inactive: dose: 12.5 mg/kg/injection, schedule: Q01DX001 (ip), vehicle: saline 105 % of control | dose: 25.0 mg/kg/injection, schedule: Q01DX001 (ip), vehicle: saline 97 % of control | dose: 25.0 mg/kg/injection, schedule: Q01DX009 (ip), vehicle: saline with Tween-80 103 % of control | dose: 50.0 mg/kg/injection, schedule: Q01DX001 (ip), vehicle: saline 103 % of control | dose: 50.0 mg/kg/injection, schedule: Q01DX009 (ip), vehicle: saline with Tween-80 95 % of control | dose: 100.0 mg/kg/injection, schedule: Q01DX001 (ip), vehicle: alcohol 93 % of control | [1] 91 % of control | dose: 200.0 mg/kg/injection, schedule: Q01DX001 (ip), vehicle: alcohol 86 % of control

FCCCC1CCCCN1 (stereo unspecified)
inactive: [2] 98 % of control | [3] 102 % of control | dose: 50.0 mg/kg/injection, schedule: Q01DX009 (ip), vehicle: saline 96 % of control and 109 % of control

CC(=O)c1cc2ccccc2oc1=O
inactive: dose: 100.0 mg/kg/injection, schedule: Q01DX009 (ip), vehicle: gum acacia 117 % of control | dose: 200.0 mg/kg/injection, schedule: Q01DX009 (ip), vehicle: gum acacia 108 % of control | dose: 400.0 mg/kg/injection, schedule: Q01DX009 (ip), vehicle: gum acacia 107 % of control

OC(CCCNc1ccccc1)CCCNc1ccccc1
inactive: dose: 75.0 mg/kg/injection, schedule: Q01DX001 (ip), vehicle: saline 96 % of control | dose: 150.0 mg/kg/injection, schedule: Q01DX001 (ip), vehicle: saline 91 % of control

Cc1cn(C)c2nccnc12
inactive: dose: 25.0 mg/kg/injection, schedule: Q01DX009 (ip), vehicle: water 104 % of control | dose: 50.0 mg/kg/injection, schedule: Q01DX009 (ip), vehicle: water 110 % of control | dose: 100.0 mg/kg/injection, schedule: Q01DX009 (ip), vehicle: water 98 % of control

COc1ccc(Cl)cc1NC(=O)COc1ccccc1
inactive: dose: 100.0 mg/kg/injection, schedule: Q01DX001 (ip), vehicle: saline with Tween-80 89 % of control | [1] 102 % of control | dose: 100.0 mg/kg/injection, schedule: Q04DX002 (ip), vehicle: saline with Tween-80 97 % of control and 98 % of control | dose: 200.0 mg/kg/injection, schedule: Q01DX001 (ip), vehicle: saline with Tween-80 92 % of control | dose: 200.0 mg/kg/injection, schedule: Q01DX009 (ip), vehicle: saline with Tween-80 98 % of control and 102 % of control | dose: 200.0 mg/kg/injection, schedule: Q04DX002 (ip), vehicle: saline with Tween-80 94 % of control and 97 % of control | dose: 400.0 mg/kg/injection, schedule: Q01DX001 (ip), vehicle: saline with Tween-80 101 % of control | dose: 400.0 mg/kg/injection, schedule: Q01DX009 (ip), vehicle: saline with Tween-80 93 % of control and 102 % of control | dose: 400.0 mg/kg/injection, schedule: Q04DX002 (ip), vehicle: saline with Tween-80 94 % of control and 101 % of control

N=C(N)SCc1ccccc1Cl
inactive: dose: 3.13 mg/kg/injection, schedule: Q01DX009 (ip), vehicle: saline 96 % of control | dose: 3.13 mg/kg/injection, schedule: Q04DX002 (ip), vehicle: saline 102 % of control | dose: 6.25 mg/kg/injection, schedule: Q01DX009 (ip), vehicle: saline 98 % of control | dose: 6.25 mg/kg/injection, schedule: Q04DX002 (ip), vehicle: saline 102 % of control | [2] 96 % of control | dose: 12.5 mg/kg/injection, schedule: Q04DX002 (ip), vehicle: saline 91 % of control | [3] 96 % of control | dose: 25.0 mg/kg/injection, schedule: Q04DX002 (ip), vehicle: saline 97 % of control and 98 % of control | dose: 50.0 mg/kg/injection, schedule: Q04DX002 (ip), vehicle: saline 94 % of control

NC(=S)NO
inactive: dose: 50.0 mg/kg/injection, schedule: Q04DX003 (ip), vehicle: other 101 % of control | dose: 100.0 mg/kg/injection, schedule: Q04DX003 (ip), vehicle: other 107 % of control | dose: 200.0 mg/kg/injection, schedule: Q04DX003 (ip), vehicle: other 104 % of control | dose: 400.0 mg/kg/injection, schedule: Q04DX003 (ip), vehicle: other 96 % of control

Nc1nc(-c2cccc([N+](=O)[O-])c2)nc2[nH]ncc12
inactive: dose: 37.5 mg/kg/injection, schedule: Q01DX001 (ip), vehicle: Klucel (hydroxypropylcellulose) (HPC) 98 % of control | dose: 75.0 mg/kg/injection, schedule: Q01DX001 (ip), vehicle: Klucel (hydroxypropylcellulose) (HPC) 98 % of control | dose: 150.0 mg/kg/injection, schedule: Q01DX001 (ip), vehicle: Klucel (hydroxypropylcellulose) (HPC) 96 % of control

COc1ccc(OC)c(C(=O)CCCCCCCCC(=O)O)c1
inactive: dose: 100.0 mg/kg/injection, schedule: Q04DX003 (ip), vehicle: Klucel (hydroxypropylcellulose) (HPC) 109 % of control | dose: 200.0 mg/kg/injection, schedule: Q04DX003 (ip), vehicle: Klucel (hydroxypropylcellulose) (HPC) 95 % of control | dose: 400.0 mg/kg/injection, schedule: Q04DX003 (ip), vehicle: Klucel (hydroxypropylcellulose) (HPC) 101 % of control

CC(=O)OC(C)COCc1ccccc1 (stereo unspecified)
inactive: [4] 107 % of control | [5] 89 % of control | [6] 100 % of control

O=C(c1ccccc1)C1NC1c1ccccc1 (stereo unspecified)
inactive: dose: 100.0 mg/kg/injection, schedule: Q01DX001 (ip), vehicle: Klucel (hydroxypropylcellulose) (HPC) 97 % of control | dose: 200.0 mg/kg/injection, schedule: Q01DX001 (ip), vehicle: Klucel (hydroxypropylcellulose) (HPC) 92 % of control | dose: 400.0 mg/kg/injection, schedule: Q01DX001 (ip), vehicle: Klucel (hydroxypropylcellulose) (HPC) 95 % of control

Cc1cn(C2CCCO2)c(=O)[nH]c1=O (stereo unspecified)
inactive: [4] 106 % of control | [5] 101 % of control | [6] 95 % of control

CCCC[S][Sn-]([CH2]CCC)([CH2]CCC)[CH2]CCC
inactive: dose: 6.25 mg/kg/injection, schedule: Q04DX003 (ip), vehicle: saline with Tween-80 101 % of control | dose: 12.5 mg/kg/injection, schedule: Q04DX003 (ip), vehicle: saline with Tween-80 109 % of control | dose: 25.0 mg/kg/injection, schedule: Q04DX002 (ip), vehicle: saline with Tween-80 93 % of control | dose: 25.0 mg/kg/injection, schedule: Q04DX003 (ip), vehicle: saline with Tween-80 98 % of control

CCS(=O)(=O)c1ccc(NC(=O)Oc2ccccc2OC)cc1
inactive: dose: 100.0 mg/kg/injection, schedule: Q01DX001 (ip), vehicle: carboxymethylcellulose (CMC) 89 % of control | dose: 200.0 mg/kg/injection, schedule: Q01DX001 (ip), vehicle: carboxymethylcellulose (CMC) 100 % of control | dose: 400.0 mg/kg/injection, schedule: Q01DX001 (ip), vehicle: carboxymethylcellulose (CMC) 100 % of control

CCCCOC(=O)c1[nH]cnc1N
inactive: [4] 114 % of control | [5] 110 % of control

CC(=O)[C@H]1C[C@@H](CC(=O)O)C1(C)C
inactive: [4] 106 % of control | dose: 100.0 mg/kg/injection, schedule: Q04DX003 (ip), vehicle: saline 96 % of control | [5] 103 % of control | dose: 200.0 mg/kg/injection, schedule: Q04DX003 (ip), vehicle: saline 88 % of control | [6] 97 % of control | dose: 400.0 mg/kg/injection, schedule: Q04DX003 (ip), vehicle: saline 96 % of control
